# Results taken from US10221139B2, “Inhibitors of histone demethylases” (Gilead Sciences, Inc., priority 2012, dated 2019).
# Test system: demethylation of H3K4 (H3K4me3 mark) in U2OS cells
# Test: Histone lysine demethylase immunofluorescence assay, non-transfected U2OS cells (H3K4me3 staining)
# Format: cell-based
# Conditions: Homo sapiens, 20 hours
# Experimental: Histone Lysine Demethylase Immunofluorescence Assays for IC50 Value Determination, Non-Transfected Cells
# U2OS cells were harvested and seeded into multi well plates into media containing compound. The media used was DMEM containing 5% FBS and pen/strep. 20 hours after incubation of cells with compounds, the cells were washed once in PBS, harvested by fixation with formaldehyde 4% aqueous solution, and washed 2 times in PBS. Subsequently, the cells were permeabilized in PBS with 0.2% Triton X-100 for 10 min at room temperature. Blocking was performed in PBS with 0.2% Triton X-100 and 5% FBS for 45 min at room temperature. The cells were incubated with αH3K4me3 primary antibody (Cell Signaling, #9751S) diluted 1:1000 in blocking solution over night at 4° C. After incubation with primary antibody, the cells were washed 3 times with PBS, incubated with secondary antibody diluted 1:1000 (Alexa fluor 594 goat anti rabbit IgG, Invitrogen, A11012) and Hoechst, 20 μg/ml (Sigma, 33342) in blocking solution, and washed again 3 times with PBS. Finally, PBS was added and high throughput imaging and analysis were performed by an IN Cell Analyzer 1000 (GE Healthcare). The IC50 values seen in Table 4 were based on an average measure of the staining of the H3K4me3 mark in cells.
row,SMILES,IC50 [nM]
1,"C=CC(CCNC(=O)C(F)(F)F)OC(=O)c1ccnc(CNCC(=O)N(CC)CCN(C)C)c1 (centres unmarked) [drawing 242, 5-(trifluoroacetamido)pent-1-en-3-yl 2-{[({[2-(dimethylamino)ethyl](ethyl)carbamoyl}methyl)amino]methyl}pyridine-4-carboxylate]",< 1000
2,"CCN(CC)CCCCNCc1cc(C(=O)OCCCN(C)C)ccn1 [drawing 230, 3-(dimethylamino)propyl 2-({[4-(diethylamino)butyl]amino}methyl) pyridine-4-carboxylate]",1000 to 50000
3,CCOC(=O)N(C)c1ccc(COC(=O)c2ccnc(CNCCCCN(CC)CC)c2)cc1 [drawing 236],< 1000

# Molecular target: T1, PLU1 (KDM5B) (Homo sapiens, UniProt Q9UGL1)
# T1 construct: (1-752); host or cells: U2OS
# T1 sequence (Q9UGL1 1-752): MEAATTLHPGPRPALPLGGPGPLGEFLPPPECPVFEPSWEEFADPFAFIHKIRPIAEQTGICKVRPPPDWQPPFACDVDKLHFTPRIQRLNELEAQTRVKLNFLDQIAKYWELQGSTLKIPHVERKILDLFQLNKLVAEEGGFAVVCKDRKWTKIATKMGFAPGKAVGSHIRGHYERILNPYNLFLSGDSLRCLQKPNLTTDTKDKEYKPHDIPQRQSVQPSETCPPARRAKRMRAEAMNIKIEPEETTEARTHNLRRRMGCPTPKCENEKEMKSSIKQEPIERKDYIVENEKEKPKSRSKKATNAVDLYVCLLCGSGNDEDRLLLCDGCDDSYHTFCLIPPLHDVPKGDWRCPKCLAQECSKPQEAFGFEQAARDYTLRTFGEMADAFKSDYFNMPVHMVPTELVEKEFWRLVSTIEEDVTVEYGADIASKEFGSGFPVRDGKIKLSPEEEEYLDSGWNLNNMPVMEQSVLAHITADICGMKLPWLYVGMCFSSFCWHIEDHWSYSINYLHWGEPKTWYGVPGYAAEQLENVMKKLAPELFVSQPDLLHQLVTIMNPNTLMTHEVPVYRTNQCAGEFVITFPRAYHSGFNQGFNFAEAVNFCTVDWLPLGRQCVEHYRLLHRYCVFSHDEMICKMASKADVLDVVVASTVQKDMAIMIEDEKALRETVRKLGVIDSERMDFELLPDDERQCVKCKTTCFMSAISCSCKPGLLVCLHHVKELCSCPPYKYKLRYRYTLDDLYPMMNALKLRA
# Test: Immunofluorescence assay in U2OS cells transfected with pCMVHA PLU1 (H3K4me2 mark)
# Format: cell-based
# Conditions: 20 hours
# Experimental: U2OS cells were seeded 24 hours before transfection. Transfection was performed with Fugene HD transfection reagent as recommended by the manufacturer. 6 hours after transfection, the cells were harvested and seeded into multi well plates into media containing compound. The media used was DMEM containing 5% FBS and pen/strep. 20 hours after incubation of cells with compounds, the cells were washed once in PBS, harvested by fixation with formaldehyde 4% aqueous solution, and washed 2 times in PBS. Subsequently, the cells were permeabilized in PBS with 0.2% Triton X-100 for 10 min at room temperature. Blocking was performed in PBS with 0.2% Triton X-100 and 5% FBS for 45 min at room temperature. The cells were incubated with primary antibodies diluted 1 μg/ml in blocking solution over night at 4° C. The primary antibodies used in the assays were HA.11 (Covance, MMS-101P) and the antibody detecting the mark specified in the Table 6 below. After incubation with primary antibodies, the cells were washed 3 times with PBS, incubated with secondary antibodies diluted 1:1000 (Alexa fluor 594 goat anti rabbit IgG, Invitrogen, A11012; Alexa flour 488 donkey anti mouse IgG, Invitrogen, A21202) and Hoechst, 20 μg/ml (Sigma, 33342) in blocking solution, and washed again 3 times with PBS. Finally, PBS was added and high throughput imaging and analysis were performed by an IN Cell Analyzer 1000 (GE Healthcare). The robot software analyzed individual cells and divided these into HA^+ (transfected cells) and HA^− (non-transfected cells). The IC50 values in Table 7 below were based on an average measure of the staining of the mark specified in the Table 6 below in the transfected cells.
row,SMILES,IC50 [nM]
1,"CCCCN1CCCC1CCNCc1cc(C(=O)O)ccn1 (centres unmarked) [drawing 321, 2-({[2-(1-butylpyrrolidin-2-yl)ethyl]amino}methyl) pyridine-4-carboxylic acid]",1000 to 50000
2,CN(CCCCN(Cc1ccccc1)C1CC1)C(=O)CNCc1cc(C(=O)O)ccn1 [drawing 323],> 50000
3,"CCN(CCC#N)C(=O)CNCc1cc(C(=O)O)ccn1 [drawing 320, 2-[({[(2-cyanoethyl)(ethyl)carbamoyl]methyl}amino)methyl] pyridine-4-carboxylic acid]",1000 to 50000

# Test system: MCF7 cells
# Test: MCF7 cell proliferation assay (ATPlite)
# Format: cell-based
# Conditions: Homo sapiens, 120 hours
# Experimental: MCF7 cells were seeded at 1250 cells/well in 50 μl medium/well in black 96 well plates. Cells were incubated for 24 hours before addition of compound. Compounds were diluted in complete medium (50 μl/well) and added to the plates in duplicates. The total volume of medium in the wells was 100 μl, and the final concentration of DMSO 0.5%. Complete medium used was DMEM with GlutaMAX containing 10% FBS and pen/strep.
# 120 hours after addition of compounds, the plates were harvested and analyzed by ATPlite 1 Step (Perkin Elmer, cat no 6016739) according to the manufactures recommendation. Briefly, 100 μl ATP lite solution was added to each well, plates were vortexed at 700 rpm 2 minutes, followed by 20 minutes incubation in the dark, and then analyzed for luminescence on EnSpire 2300 Mulitilabel reader (Perkin Elmer). EC50 values were calculated using GraphPad Prism 6.
row,SMILES,EC50 [nM]
1,"C=CC(CCNC(=O)C(F)(F)F)OC(=O)c1ccnc(CNCC(=O)N(CC)CCN(C)C)c1 (centres unmarked) [drawing 283, 5-(trifluoroacetamido)pent-1-en-3-yl 2-{[({[2-(dimethylamino)ethyl](ethyl)carbamoyl}methyl)amino]methyl}pyridine-4-carboxylate]",< 1000
2,"CCCCCCCCCCCCCCCC(=O)OCC(COC(=O)c1ccnc(CNCC(=O)N(CC)CCN(C)C)c1)OC(=O)CCCCCCCCCCCCCCC (centres unmarked) [drawing 286, 1-(2-{[({[2-(dimethylamino)ethyl](ethyl)carbamoyl}methyl)amino]methyl}pyridine-4-carbonyloxy)-3-(hexadecanoyloxy)propan-2-yl hexadecanoate]",< 1000
3,COc1ccccc1CN1CCC(NC(=O)CNCc2cc(C(=O)O)ccn2)CC1 [drawing 262],1000 to 50000
4,"O=C(O)c1ccnc(CNCCCNCCOc2ccccc2)c1 [drawing 266, 2-[({3-[(2-phenoxyethyl)amino]propyl}amino)methyl] pyridine-4-carboxylic acid]",1000 to 50000
5,"CCN(CCN(C)C)C(=O)CNCc1cc(C(=O)Oc2ccc(OC)cc2)ccn1 [drawing 275, 4-methoxyphenyl 2-{[({[2-(dimethylamino)ethyl](ethyl)carbamoyl}methyl)amino]methyl}pyridine-4-carboxylate]",1000 to 50000
6,"CCN(CC)CCCCNCc1cc(C(=O)Oc2c(OC)cccc2OC)ccn1 [drawing 273, 2,6-dimethoxyphenyl 2-({[4-(diethylamino)butyl]amino}methyl)pyridine-4-carboxylate]",< 1000
7,"CCN(CCN(C)C)C(=O)CNCc1cc(C(=O)OC(CNC(=O)C(F)(F)F)CC(=O)OC(C)C)ccn1 (centres unmarked) [drawing 290, propan-2-yl 3-(2-{[({[2-(dimethylamino)ethyl](ethyl)carbamoyl}methyl)amino]methyl}pyridine-4-carbonyloxy)-4-(trifluoroacetamido)butanoate]",1000 to 50000
8,"O=C(O)c1ccnc(CNCC2CC2)c1 [drawing 257, 2-{[(cyclopropylmethyl)amino]methyl}pyridine-4-carboxylic acid]",1000 to 50000

# Second part, the compound after the results:
row,EC50 [nM],SMILES
1,1000 to 50000,"C=CCN(CC=C)C(=O)CNCc1cc(C(=O)O)ccn1 [drawing 260, 2-[({[bis(prop-2-en-1-yl)carbamoyl]methyl}amino)methyl]pyridine-4-carboxylic acid]"
2,< 1000,"CCN(CCN(C)C)C(=O)CNCc1cc(C(=O)N(C)S(C)(=O)=O)ccn1 [drawing 288, 2-{[({[2-(dimethylamino)ethyl](ethyl)carbamoyl}methyl)amino]methyl}-N-methanesulfonyl-N-methylpyridine-4-carboxamide]"
3,> 50000,"CN(CCCCN(Cc1ccccc1)C1CC1)C(=O)CNCc1cc(C(=O)O)ccn1 [drawing 267, 2-({[({4-[benzyl(cyclopropyl)amino]butyl)(methyl)carbamoyl)methyl]amino}methyl)pyridine-4-carboxylic acid]"
4,1000 to 50000,"CCN(CCN(C)C)C(=O)CNCc1cc(C(=O)N2CCOC2=O)ccn1 [drawing 289, N-[2-(dimethylamino)ethyl]-N-ethyl-2-({[4-(2-oxo-1,3-oxazolidine-3-carbonyl)pyridin-2-yl]methyl}amino)acetamide]"
5,1000 to 50000,"CCN(CCN(C)C)C(=O)CNCc1cc(C(=O)OCC(F)(F)F)ccn1 [drawing 292, 2,2,2-trifluoroethyl 2-{[({[2-(dimethylamino)ethyl](ethyl)carbamoyl}methyl)amino]methyl}pyridine-4-carboxylate]"
6,1000 to 50000,Cn1c(CNCc2cc(C(=O)O)ccn2)nc2ccccc21 [drawing 259]
7,1000 to 50000,"CN(CCCc1nccn1C)C(=O)CNCc1cc(C(=O)O)ccn1 [drawing 261, 2-{[({methyl[3-(1-methyl-1H-imidazol-2-yl)propyl]carbamoyl}methyl)amino]methyl} pyridine-4-carboxylic acid]"
8,1000 to 50000,"CCN(CCC#N)C(=O)CNCc1cc(C(=O)O)ccn1 [drawing 263, 2-[({[(2-cyanoethyl)(ethyl)carbamoyl]methyl}amino)methyl]pyridine-4-carboxylic acid]"
9,1000 to 50000,"CCN(CCN(C)C)C(=O)CNCc1cc(C(=O)Nc2ncco2)ccn1 [drawing 293, 2-{[({[2-(dimethylamino)ethyl](ethyl)carbamoyl}methyl)amino]methyl}-N-(1,3-oxazol-2-yl)pyridine-4-carboxamide]"
10,1000 to 50000,"CSCCNCc1cc(C(=O)O)ccn1 [drawing 258, 2-({[2-(methylsulfanyl)ethyl]amino}methyl)pyridine-4-carboxylic acid]"
11,< 1000,"CCN(CCN(C)C)C(=O)CNCc1cc(C(=O)OCC(F)F)ccn1 [drawing 295, 2,2-difluoroethyl 2-{[({[2-(dimethylamino)ethyl](ethyl)carbamoyl}methyl)amino]methyl}pyridine-4-carboxylate]"
12,< 1000,"CCN(CCN(C)C)C(=O)CNCc1cc(C(=O)OC(C)CC(C)=O)ccn1 (centres unmarked) [drawing 279, 4-oxopentan-2-yl 2-{[({[2-(dimethylamino)ethyl](ethyl)carbamoyl}methyl)amino]methyl}pyridine-4-carboxylate]"
